# Assay results published in patent publication EP4635500A1, “THERAPEUTIC AGENT FOR BACTERIAL INFECTION” (Sumitomo Pharma Co., Ltd., priority 2022, dated 2024).
# Read-outs that look alike come from different tables or passages of the source.
# Legend:
# Format in all cases: cell-based
# Escherichia coli = test: MIC, broth microdilution, standard strains and Japanese clinical isolates (Example 5, Table 4)
# Klebsiella pneumoniae = test: as above
# Enterobacter cloacae = test: as above
# Enterobacter hormaechei = test: as above; conditions: ATCCBAA2082; KUB4001 Enterobacter hormaechei ATCC BAA-2082, KPC-2
# Providencia rettgeri = test: as above; conditions: ATCCBAA2525; KUB4010 Providencia rettgeri ATCC BAA-2525, OXA-181
# [1] = test system: Metallo-β-lactamase producing strains (N = 27); test: MIC50/MIC90 for carbapenemase-producing isolates (Example 5, Table 6); conditions: metallo-β-lactamase-producing strains; combination: Compound A at a fixed concentration of 4 µg/mL; read-out: MIC90
# P. aeruginosa = test: MIC, broth microdilution, CDC/FDA Antibiotic Resistance Isolate Bank (Example 7, Tables 10, 15); conditions: for MIC: Pseudomonas aeruginosa, read-out: MIC
# [2] = 26 metallo-carbapenemase-producing P. aeruginosa strains, β-lactamase inhibitor µg/mL in parentheses
# [3] = 96 strains of P. aeruginosa, β-lactamase inhibitor µg/mL in parentheses
smiles,measurement,setting,value
"CC(C)(O/N=C(\C(=O)N[C@@H]1C(=O)N2C(C(=O)[O-])=C(C[N+]3(CCNC(=O)c4ccc(O)c(O)c4Cl)CCCC3)CS[C@H]12)c1csc(N)n1)C(=O)O [Cefiderocol, cefiderocol]",MIC,"Escherichia coli; ATCCBAA2452, KUB4005 Escherichia coli ATCC BAA-2452, NDM-1",0.5 mg/L
same,MIC,"Escherichia coli; ATCCBAA2471, KUB4007 Escherichia coli ATCC BAA-2471, NDM-6",4 mg/L
same,MIC,"Klebsiella pneumoniae; ATCCBAA1898, KUB3996 Klebsiella pneumoniae ATCC BAA-1898, KPC-2",2 mg/L
same,MIC,"Klebsiella pneumoniae; ATCCBAA1899, KUB3997 Klebsiella pneumoniae ATCC BAA-1899, KPC-2",2 mg/L
same,MIC,"Klebsiella pneumoniae; ATCCBAA1900, KUB3998 Klebsiella pneumoniae ATCC BAA-1900, KPC-3",0.25 mg/L
same,MIC,"Klebsiella pneumoniae; ATCCBAA1904, KUB3999 Klebsiella pneumoniae ATCC BAA-1904, KPC-3",1 mg/L
same,MIC,"Klebsiella pneumoniae; ATCCBAA2078, KUB4000 Klebsiella pneumoniae ATCC BAA-2078, KPC-3",2 mg/L
same,MIC,"Klebsiella pneumoniae; ATCCBAA2146, KUB4011 Klebsiella pneumoniae ATCC BAA-2146, NDM-1",2 mg/L
same,MIC,"Klebsiella pneumoniae; ATCCBAA2342, KUB4003 Klebsiella pneumoniae ATCC BAA-2342, KPC-3",0.5 mg/L
same,MIC,"Klebsiella pneumoniae; ATCCBAA2343, KUB4004 Klebsiella pneumoniae ATCC BAA-2343, KPC-3",0.25 mg/L
same,MIC,"Klebsiella pneumoniae; ATCCBAA2472, KUB4008 Klebsiella pneumoniae subsp. Pneumoniae ATCC BAA-2472, NDM-1",8 mg/L
same,MIC,"Klebsiella pneumoniae; ATCCBAA2473, KUB4009 Klebsiella pneumoniae ATCC BAA-2473, NDM-1",8 mg/L
same,MIC,"Klebsiella pneumoniae; KUB3631 Klebsiella pneumoniae Clinical isolate, IMP-1",2 mg/L
same,MIC,"Klebsiella pneumoniae; KUB3633 Klebsiella pneumoniae Clinical isolate, IMP-6",1 mg/L
same,MIC,"Klebsiella pneumoniae; KUB3634 Klebsiella pneumoniae Clinical isolate, IMP-6",2 mg/L
same,MIC,"Enterobacter cloacae; ATCCBAA2341, KUB4002 Enterobacter cloacae ATCC BAA-2341, KPC-3",0.5 mg/L
same,MIC,"Enterobacter cloacae; ATCCBAA2468, KUB4006 Enterobacter cloacae ATCC BAA-2468, NDM-1",1 mg/L
same,MIC,Enterobacter hormaechei,2 mg/L
same,MIC,Providencia rettgeri,2 mg/L
same,MIC90,[1],8 mg/L
same,MIC against 26 metallo-carbapenemase-producing strains MIC50,P. aeruginosa; [2],0.5 µg(mL)
same,MIC against 26 metallo-carbapenemase-producing strains MIC90,P. aeruginosa; [2],2 µg(mL)
same,MIC against 26 metallo-carbapenemase-producing strains MICrange,P. aeruginosa; [2],0.25 - 4 µg(mL)
same,MIC against 96 strains of P. aeruginosa MIC50,P. aeruginosa; [3],0.5 µg(mL)
same,MIC against 96 strains of P. aeruginosa MIC90,P. aeruginosa; [3],2 µg(mL)
same,MIC against 96 strains of P. aeruginosa MICrange,P. aeruginosa; [3],≤0.06 - 4 µg(mL)
same,MIC,"P. aeruginosa; P. aeruginosa KUB No. 579, AR Bank # 447",0.12 mg/L
same,MIC,"P. aeruginosa; P. aeruginosa KUB No. 5083, AR Bank # 250",4 mg/L
same,MIC,"P. aeruginosa; P. aeruginosa KUB No. 5551, AR Bank # 54",0.5 mg/L
same,MIC,"P. aeruginosa; P. aeruginosa KUB No. 5561, AR Bank # 64",2 mg/L
same,MIC,"P. aeruginosa; P. aeruginosa KUB No. 5587, AR Bank # 90",1 mg/L
same,MIC,"P. aeruginosa; P. aeruginosa KUB No. 5589, AR Bank # 92",2 mg/L
same,MIC,"P. aeruginosa; P. aeruginosa KUB No. 5591, AR Bank # 94",2 mg/L
same,MIC,"P. aeruginosa; P. aeruginosa KUB No. 5592, AR Bank # 95",0.5 mg/L
same,MIC,"P. aeruginosa; P. aeruginosa KUB No. 5597, AR Bank # 100",0.5 mg/L
same,MIC,"P. aeruginosa; P. aeruginosa KUB No. 5600, AR Bank # 103",1 mg/L
same,MIC,"P. aeruginosa; P. aeruginosa KUB No. 5602, AR Bank # 105",1 mg/L
same,MIC,"P. aeruginosa; P. aeruginosa KUB No. 5605, AR Bank # 108",0.5 mg/L
same,MIC,"P. aeruginosa; P. aeruginosa KUB No. 5607, AR Bank # 110",0.25 mg/L
same,MIC,"P. aeruginosa; P. aeruginosa KUB No. 5608, AR Bank # 111",0.5 mg/L
same,MIC,"P. aeruginosa; P. aeruginosa KUB No. 5662, AR Bank # 229",0.12 mg/L
same,MIC,"P. aeruginosa; P. aeruginosa KUB No. 5663, AR Bank # 230",0.5 mg/L
same,MIC,"P. aeruginosa; P. aeruginosa KUB No. 5664, AR Bank # 231",2 mg/L
same,MIC,"P. aeruginosa; P. aeruginosa KUB No. 5665, AR Bank # 232",0.12 mg/L
same,MIC,"P. aeruginosa; P. aeruginosa KUB No. 5666, AR Bank # 23",0.12 mg/L
same,MIC,"P. aeruginosa; P. aeruginosa KUB No. 5667, AR Bank # 234",0.25 mg/L
same,MIC,"P. aeruginosa; P. aeruginosa KUB No. 5668, AR Bank # 235",1 mg/L
same,MIC,"P. aeruginosa; P. aeruginosa KUB No. 5669, AR Bank # 236",0.25 mg/L
same,MIC,"P. aeruginosa; P. aeruginosa KUB No. 5670, AR Bank # 237",0.25 mg/L
same,MIC,"P. aeruginosa; P. aeruginosa KUB No. 5671, AR Bank # 238",1 mg/L
same,MIC,"P. aeruginosa; P. aeruginosa KUB No. 5672, AR Bank # 239",2 mg/L
same,MIC,"P. aeruginosa; P. aeruginosa KUB No. 5673, AR Bank # 240",1 mg/L
same,MIC,"P. aeruginosa; P. aeruginosa KUB No. 5674, AR Bank # 241",0.25 mg/L
same,MIC,"P. aeruginosa; P. aeruginosa KUB No. 5675, AR Bank # 242",0.5 mg/L
same,MIC,"P. aeruginosa; P. aeruginosa KUB No. 5676, AR Bank # 243",0.5 mg/L
same,MIC,"P. aeruginosa; P. aeruginosa KUB No. 5677, AR Bank # 244",0.25 mg/L
same,MIC,"P. aeruginosa; P. aeruginosa KUB No. 5678, AR Bank # 245",0.25 mg/L
same,MIC,"P. aeruginosa; P. aeruginosa KUB No. 5679, AR Bank # 246",4 mg/L
same,MIC,"P. aeruginosa; P. aeruginosa KUB No. 5680, AR Bank # 247",0.12 mg/L
same,MIC,"P. aeruginosa; P. aeruginosa KUB No. 5681, AR Bank # 248",0.5 mg/L
same,MIC,"P. aeruginosa; P. aeruginosa KUB No. 5682, AR Bank # 249",0.5 mg/L
same,MIC,"P. aeruginosa; P. aeruginosa KUB No. 5684, AR Bank # 251",0.12 mg/L
same,MIC,"P. aeruginosa; P. aeruginosa KUB No. 5685, AR Bank # 252",2 mg/L
same,MIC,"P. aeruginosa; P. aeruginosa KUB No. 5686, AR Bank # 253",0.12 mg/L
